Source: patent publication US11389413B2, “Methods of preparing compositions containing thymoquinone” (Jina Pharmaceuticals, Inc., priority 2017, dated 2022)

How the values were obtained:
[1] = system: streptozotocin (STZ) induced diabetic mice; test: Hypoglycemic activity in streptozotocin-induced diabetic mice (blood glucose, water intake); format: in vivo, Male ICR (CD-1) mice
Procedure: Induction of Experimental Diabetes in Mice: Male ICR (CD-1) mice (8-9 weeks of age) were fasted for 6 hrs. before streptozotocin (STZ) administration. Fresh STZ solution at 15 mg/mL was prepared by dissolving powder STZ into 1 mM citrate buffer (pH 4.5). Mice received i.p. STZ solution of 150 mg/kg. Fasting blood glucose level was measured from tail vein blood. Mice with blood glucose levels of 250 mg/dL or higher were considered to be diabetic. Blood samples with “HI” (>600 mg/dL) reading were diluted with same amount of normal saline before measuring again.
A total of 20 diabetic mice were randomized based on the blood glucose levels into two study groups, group A: Metformin (Met)-treated, and group B: Thymoquinone/Metformin (TQ/Met)-treated groups.
There were 10 animals in each group. Mice in group A received oral administration of Met at a dose of 200 mg/kg every day. Mice in group B received oral administration of Met+TQ (200 mg/kg+50 mg/kg) every day using a 20-Ga stainless feeding needle. Fasting blood glucose level was measured weekly.
Water intake was also estimated by weighing each water bottle before and after a period of 24 hrs. The volume of water consumed was estimated from the weight of water consumed. The volume of water consumed by each cage was normalized with body weight and presented as mL/30 g BW over 24 hrs.

[2] = system: Lipopolysaccaride/D-Galactosamine (LPS/GaIN) induced acute liver failure; test: LPS/GalN induced acute liver failure, survival; format: in vivo, Male C57BL6 mice; settings: TQ 200 mg/kg oral gavage 30 min after LPS/GalN injection; all control mice died in over 7 hrs
Procedure: A total of 13 male C57BL6 mice (5-6 weeks of age) were injected intraperitoneally with D-galactosamine (GaIN, Carbosynth) (800 mg/kg) and lipopolysaccharide (LPS from E coli 0127:B8, Sigma-Aldrich) (10 μg/kg) dissolved in normal saline. 30 min after LPS/GalN injection, 6 mice in the control group received purified water (20 mL/kg) and 7 mice received a TQ at a dose of 200 mg/kg, via oral gavage. Survival was monitored for 48 hrs. All mice in the control group died in over 7 hrs. period following the injection of LPS/GalN, while 4 out of 7 mice treated with TQ survived up to 48 hrs. (see FIG. 2).

[3] = cited from earlier work
[4] = cited from earlier work; remark: listed apart in the source

SMILES	Blood Glucose Level, Pre-Treat ([1]; fasting blood glucose, STZ diabetic mice, before treatment, Mean ± SD, n = 10) [mg/dL]	Blood Glucose Level, 1-Week Treat ([1]; fasting blood glucose, oral daily dosing, 1 week, Mean ± SD, n = 10) [mg/dL]	Blood Glucose Level, 2-Week Treat ([1]; fasting blood glucose, oral daily dosing, 2 weeks, Mean ± SD, n = 10) [mg/dL]	Blood Glucose Level, 3-Week Treat ([1]; fasting blood glucose, oral daily dosing, 3 weeks, Mean ± SD, n = 10) [mg/dL]	decrease in blood glucose level ([1]; over 3-week period, oral daily, Met 200 mg/kg, Met+TQ 200 mg/kg+50 mg/kg) [%]	mice surviving up to 48 hrs [2]	solubility in aqueous buffers [3]	stability in aqueous solutions [4]
CN(C)C(=N)N=C(N)N [Met, Metformin]	443 ± 102	433 ± 115	290 ± 84	299 ± 96	32.5	–	–	–
CC1=CC(=O)C(C(C)C)=CC1=O [TQ, 2-Isopropyl-5-methyl-1,4-benzoquinone]	–	–	–	–	–	4 out of 7	approx. 500 μg/mL	highly unstable
